{
  "source": "patent EP0195316A1",
  "about": "“Quinolonecarboxylic acid derivatives” (KYORIN PHARMACEUTICAL CO., LTD., priority 1985, dated 1986)",
  "experiment_in_all_cases": "MIC, in vitro antibacterial activity (standard strains)",
  "assay_type_in_all_cases": "cell-based",
  "key": {"[1]": {"system": "Bacteroides fragilis GM 7000", "details": "GM7000; Bacteroides fragilis GM 7000, 10^6 cells/ml, Gram -"}, "E. faecalis IID 682": {"system": "E. faecalis IID 682", "details": "Enterococcus faecalis, IID682; E. faecalis IID 682, 10^6 cells/ml, Gram +"}, "[2]": {"system": "Salmonella enteritidis IID 604", "details": "Salmonella enterica; Salmonella enteritidis IID 604, 10^6 cells/ml, Gram -; read-out: MIC"}, "B. fragilis 8503": {"system": "B. fragilis 8503", "details": "Bacteroides fragilis; B. fragilis 8503, 10^6 cells/ml, Gram -"}, "K. pneumoniae 1-220S": {"system": "K. pneumoniae 1-220S", "details": "Klebsiella pneumoniae, 1220S; K. pneumoniae 1-220S, 10^6 cells/ml, Gram -; read-out: MIC"}, "F. varium KYA 8501": {"system": "F. varium KYA 8501", "details": "Fusobacterium varium, KYA8501; F. varium KYA 8501, 10^6 cells/ml, Gram -; read-out: MIC"}, "B. fragilis 0558": {"system": "B. fragilis 0558", "details": "Bacteroides fragilis; B. fragilis 0558, 10^6 cells/ml, Gram -"}, "[3]": {"system": "Yersinia enterocolitica IID 981", "details": "IID981; Yersinia enterocolitica IID 981, 10^6 cells/ml, Gram -"}, "[4]": {"system": "Serratia marcescens IID 618", "details": "IID618; Serratia marcescens IID 618, 10^6 cells/ml, Gram -"}, "[5]": {"system": "S. aureus IID 670 (Terajima)", "details": "Staphylococcus aureus, IID670, 10^6 cells/ml, Gram +"}, "[6]": {"system": "Escherichia coli NIHJ JC-2", "details": "NIHJJC2; Escherichia coli NIHJ JC-2, 10^6 cells/ml, Gram -; read-out: MIC"}, "[7]": {"system": "Enterobacter cloacae IID 977", "details": "IID977; Enterobacter cloacae IID 977, 10^6 cells/ml, Gram -"}, "S. epidermidis IID 866": {"system": "S. epidermidis IID 866", "details": "Staphylococcus epidermidis, IID866; S. epidermidis IID 866, 10^6 cells/ml, Gram +"}, "[8]": {"system": "Proteus vulgaris IFO 3167", "details": "IFO3167; Proteus vulgaris IFO 3167, 10^6 cells/ml, Gram -; read-out: MIC"}, "[9]": {"system": "Klebsiella pneumoniae KY(GN)6445", "details": "Klebsiella pneumoniae KY(GN)6445, 10^6 cells/ml, Gram -; read-out: MIC"}, "E. coli ATCC 10536": {"system": "E. coli ATCC 10536", "details": "Escherichia coli, ATCC10536; E. coli ATCC 10536, 10^6 cells/ml, Gram -; read-out: MIC"}, "S. pyogenes IID 692": {"system": "S. pyogenes IID 692", "details": "Streptococcus pyogenes, IID692; S. pyogenes IID 692, 10^6 cells/ml, Gram +"}, "[10]": {"system": "Clostridium difficile I-E", "details": "Clostridioides difficile, 10^6 cells/ml, Gram +"}, "[11]": {"system": "Bacillus subtilis PCI 219", "details": "PCI219; Bacillus subtilis PCI 219, 10^6 cells/ml, Gram +"}, "[12]": {"system": "Staphylococcus aureus 209 P", "details": "10^6 cells/ml, Gram +"}, "[13]": {"system": "B. thetaiotaomicron (0661)", "details": "Bacteroides thetaiotaomicron; B. thetaiotaomicron (0661), 10^6 cells/ml, Gram -; read-out: MIC"}, "[14]": {"system": "Streptococcus pyogenes (S-8)", "details": "Streptococcus pyogenes (S-8), 10^6 cells/ml, Gram +; read-out: MIC"}, "Shigella sonnei IID 969": {"system": "Shigella sonnei IID 969", "details": "IID969; Shigella sonnei IID 969, 10^6 cells/ml, Gram -", "procedure": "Minimal inhibitory concentrations (MICs) were determined in accordance with the method recommended by Japan Society of Chemotherapy."}, "S. pneumoniae IID 552": {"system": "S. pneumoniae IID 552", "details": "Streptococcus pneumoniae, IID552; S. pneumoniae IID 552, 10^6 cells/ml, Gram +; read-out: MIC"}, "[15]": {"system": "Acinetobacter anitratus IID 876", "details": "Acinetobacter calcoaceticus, IID876; Acinetobacter anitratus IID 876, 10^6 cells/ml, Gram -"}, "P. morganii IID 602": {"system": "P. morganii IID 602", "details": "Morganella morganii, IID602; P. morganii IID 602, 10^6 cells/ml, Gram -"}, "B. fragilis 25285": {"system": "B. fragilis 25285", "details": "Bacteroides fragilis; B. fragilis 25285, 10^6 cells/ml, Gram -"}, "P. mirabilis IID 994": {"system": "P. mirabilis IID 994", "details": "Proteus mirabilis, IID994; P. mirabilis IID 994, 10^6 cells/ml, Gram -; read-out: MIC"}, "[16]": {"system": "Citrobacter freundii IID 976", "details": "IID976; Citrobacter freundii IID 976, 10^6 cells/ml, Gram -; read-out: MIC"}, "[17]": {"system": "Alcaligenes faecalis 0104002", "details": "Alcaligenes faecalis 0104002, 10^6 cells/ml, Gram -; read-out: MIC"}, "P. aeruginosa IFO 12689": {"system": "P. aeruginosa IFO 12689", "details": "Pseudomonas aeruginosa, IFO12689; P. aeruginosa IFO 12689, 10^6 cells/ml, Gram -"}},
  "data": [
    {"smiles": "CCNCC1CCN(c2c(F)cc3c(=O)c(C(=O)O)cn(CC)c3c2F)C1", "note": "(stereo not shown) [CI-934, 1-Ethyl-7-(3-ethylaminomethyl-1-pyrrolidinyl)-6,8-difluoro-1,4-dihydro-4-oxo-3-quinolinecarboxylic acid]", "values": [
      {"measurement": "MIC", "setting": "[1]", "result": 6.25, "unit": "µg/mL"},
      {"measurement": "MIC", "setting": "E. faecalis IID 682", "result": 0.39, "unit": "µg/mL"},
      {"measurement": "MIC", "setting": "[2]", "result": 0.39, "unit": "µg/mL"},
      {"measurement": "MIC", "setting": "B. fragilis 8503", "result": 6.25, "unit": "µg/mL"},
      {"measurement": "MIC", "setting": "K. pneumoniae 1-220S", "result": 0.39, "unit": "µg/mL"},
      {"measurement": "MIC", "setting": "F. varium KYA 8501", "result": 6.25, "unit": "µg/mL"},
      {"measurement": "MIC", "setting": "B. fragilis 0558", "result": 3.13, "unit": "µg/mL"},
      {"measurement": "MIC", "setting": "[3]", "result": 0.39, "unit": "µg/mL"},
      {"measurement": "MIC", "setting": "[4]", "result": 0.39, "unit": "µg/mL"},
      {"measurement": "MIC", "setting": "[5]", "result": 0.1, "unit": "µg/mL"},
      {"measurement": "MIC", "setting": "[6]", "result": 0.1, "unit": "µg/mL"},
      {"measurement": "MIC", "setting": "[7]", "result": 0.78, "unit": "µg/mL"},
      {"measurement": "MIC", "setting": "S. epidermidis IID 866", "result": 0.1, "unit": "µg/mL"},
      {"measurement": "MIC", "setting": "[8]", "result": 0.05, "unit": "µg/mL"},
      {"measurement": "MIC", "setting": "[9]", "result": 0.2, "unit": "µg/mL"},
      {"measurement": "MIC", "setting": "E. coli ATCC 10536", "result": 0.1, "unit": "µg/mL"},
      {"measurement": "MIC", "setting": "S. pyogenes IID 692", "result": 0.39, "unit": "µg/mL"},
      {"measurement": "MIC", "setting": "[10]", "result": 3.13, "unit": "µg/mL"},
      {"measurement": "MIC", "setting": "[11]", "result": 0.05, "unit": "µg/mL"},
      {"measurement": "MIC", "setting": "[12]", "result": 0.1, "unit": "µg/mL"},
      {"measurement": "MIC", "setting": "[13]", "result": 25, "unit": "µg/mL"},
      {"measurement": "MIC", "setting": "[14]", "result": 0.2, "unit": "µg/mL"},
      {"measurement": "MIC", "setting": "Shigella sonnei IID 969", "result": 0.1, "unit": "µg/mL"},
      {"measurement": "MIC", "setting": "S. pneumoniae IID 552", "result": 0.39, "unit": "µg/mL"},
      {"measurement": "MIC", "setting": "[15]", "result": 0.39, "unit": "µg/mL"},
      {"measurement": "MIC", "setting": "P. morganii IID 602", "result": 0.39, "unit": "µg/mL"},
      {"measurement": "MIC", "setting": "B. fragilis 25285", "result": 3.13, "unit": "µg/mL"},
      {"measurement": "MIC", "setting": "P. mirabilis IID 994", "result": 0.2, "unit": "µg/mL"},
      {"measurement": "MIC", "setting": "[16]", "result": 0.2, "unit": "µg/mL"},
      {"measurement": "MIC", "setting": "[17]", "result": 6.25, "unit": "µg/mL"},
      {"measurement": "MIC", "setting": "P. aeruginosa IFO 12689", "result": 6.25, "unit": "µg/mL"}
    ]}
  ]
}
